According to patent US11464749B2, “Bismuth-thiol compositions and methods of use” (Microbion Corporation, priority 2018, dated 2022):
Values after ≈ are worked out from the molar mass of the structure shown. Like-named read-outs stand apart in the source and are kept apart here.

What was measured:
Escherichia coli = experiment: Broth microdilution MIC (Example 12)
Klebsiella pneumoniae = experiment: Broth microdilution MIC (Example 12)
Pseudomonas aeruginosa = experiment: Broth microdilution MIC (Example 12)
Acinetobacter baumannii = experiment: Broth microdilution MIC (Example 12)
[1] = system: vancomycin-intermediate Staphylococcus aureus (VISA); experiment: Broth microdilution MIC (Example 12)
Neisseria gonorrhoeae = experiment: Agar dilution MIC (Example 11); format: cell-based; details: read-out: MIC
[2] = E. coli ATCC 35218, QC organism (Table 102)
[3] = K. pneumoniae ATCC BAA-1705, ESBL/KPC
[4] = K. pneumoniae ATCC BAA-1705, QC organism (Table 102)
[5] = K. pneumoniae CDC 113, ESBL/KPC
[6] = K. pneumoniae CDC 115, ESBL/KPC
[7] = K. pneumoniae CDC 120, ESBL/KPC
[8] = K. pneumoniae CDC 126, ESBL/KPC
[9] = K. pneumoniae CDC 129, ESBL/KPC
[10] = K. pneumoniae CDC 135, ESBL/VIM
[11] = K. pneumoniae CDC 138, ESBL/NDM
[12] = K. pneumoniae CDC 158, ESBL/NDM/OXA
[13] = P. aeruginosa CDC 516, KPC/AmpC
[14] = P. aeruginosa CDC 518, KPC/AmpC

Structure (SMILES): C[C@H]1COc2c(N3CCN(C)CC3)c(F)cc3c(=O)c(C(=O)O)cn1c23 [LVX]
- MIC (Escherichia coli; E. coli ATCC 35218, ESBL): ≤0.008 µg/mL
- MIC (Escherichia coli; [2]): ≤0.008 µg/mL
- MIC (Escherichia coli; E. coli ATCC BAA-2471, NDM): >8 µg/mL
- MIC (Escherichia coli; E. coli CDC 114, ESBL/KPC): 4 µg/mL (≈ 11.1 µM)
- MIC (Escherichia coli; E. coli CDC 118, ESBL/NDM): 8 µg/mL (≈ 22.1 µM)
- MIC (Escherichia coli; E. coli CDC 435, NDM): >8 µg/mL
- MIC (Escherichia coli; E. coli CDC 451, KPC): >8 µg/mL
- MIC (Escherichia coli; E. coli CDC 503, ESBL/NDM): >8 µg/mL
- MIC (Escherichia coli; E. coli MMX 5745, KPC): 8 µg/mL (≈ 22.1 µM)
- MIC (Escherichia coli; E. coli MMX 5755, ESBL): 8 µg/mL (≈ 22.1 µM)
- MIC (Escherichia coli; E. coli MMX 5756, ESBL): 4 µg/mL (≈ 11.1 µM)
- MIC (Escherichia coli; E. coli MMX 5758, ESBL): 8 µg/mL (≈ 22.1 µM)
- MIC (Klebsiella pneumoniae; [3]): >8 µg/mL
- MIC (Klebsiella pneumoniae; [4]): >8 µg/mL
- MIC (Klebsiella pneumoniae; K. pneumoniae CDC 112, KPC): 4 µg/mL (≈ 11.1 µM)
- MIC (Klebsiella pneumoniae; [5]): 4 µg/mL (≈ 11.1 µM)
- MIC (Klebsiella pneumoniae; [6]): >8 µg/mL
- MIC (Klebsiella pneumoniae; [7]): >8 µg/mL
- MIC (Klebsiella pneumoniae; [8]): 0.015 µg/mL (≈ 0.0415 µM)
- MIC (Klebsiella pneumoniae; [9]): >8 µg/mL
- MIC (Klebsiella pneumoniae; [10]): >8 µg/mL
- MIC (Klebsiella pneumoniae; [11]): >8 µg/mL
- MIC (Klebsiella pneumoniae; [12]): 4 µg/mL (≈ 11.1 µM)
- MIC (Klebsiella pneumoniae; K. pneumoniae MMX 9029, ESBL): 0.12 µg/mL (≈ 0.332 µM)
- MIC (Pseudomonas aeruginosa; P. aeruginosa CDC 230, VIM/OXA): 8 µg/mL (≈ 22.1 µM)
- MIC (Pseudomonas aeruginosa; P. aeruginosa CDC 231, KPC/OXA): >8 µg/mL
- MIC (Pseudomonas aeruginosa; P. aeruginosa CDC 241, IMP/OXA): 8 µg/mL (≈ 22.1 µM)
- MIC (Pseudomonas aeruginosa; P. aeruginosa CDC 246, NDM/OXA): >8 µg/mL
- MIC (Pseudomonas aeruginosa; P. aeruginosa CDC 250, NDM/OXA): >8 µg/mL
- MIC (Pseudomonas aeruginosa; P. aeruginosa CDC 356, KPC): 0.12 µg/mL (≈ 0.332 µM)
- MIC (Pseudomonas aeruginosa; P. aeruginosa CDC 439, IMP): 8 µg/mL (≈ 22.1 µM)
- MIC (Pseudomonas aeruginosa; P. aeruginosa CDC 444, VIM): 8 µg/mL (≈ 22.1 µM)
- MIC (Pseudomonas aeruginosa; P. aeruginosa CDC 457, VIM): >8 µg/mL
- MIC (Pseudomonas aeruginosa; [13]): 0.25 µg/mL (≈ 0.692 µM)
- MIC (Pseudomonas aeruginosa; [14]): >8 µg/mL
- MIC (Acinetobacter baumannii; A. baumannii CDC 273, ESBL/OXA): >8 µg/mL
- MIC (Acinetobacter baumannii; A. baumannii CDC 274, ESBL/OXA): 8 µg/mL (≈ 22.1 µM)
- MIC (Acinetobacter baumannii; A. baumannii CDC 275, ESBL/OXA): 4 µg/mL (≈ 11.1 µM)
- MIC (Acinetobacter baumannii; A. baumannii CDC 277, ESBL/OXA): 8 µg/mL (≈ 22.1 µM)
- MIC (Acinetobacter baumannii; A. baumannii CDC 284, ESBL/OXA): 8 µg/mL (≈ 22.1 µM)
- MIC (Acinetobacter baumannii; A. baumannii CDC 307, OXA): 8 µg/mL (≈ 22.1 µM)
- MIC (Acinetobacter baumannii; A. baumannii CDC 308, ESBL/OXA): 4 µg/mL (≈ 11.1 µM)
- MIC (Acinetobacter baumannii; A. baumannii CDC 311, OXA): 2 µg/mL (≈ 5.53 µM)
- MIC (Acinetobacter baumannii; A. baumannii CDC 312, OXA): 2 µg/mL (≈ 5.53 µM)
- MIC (Acinetobacter baumannii; A. baumannii CDC 313, ESBL/OXA): 2 µg/mL (≈ 5.53 µM)
- MIC (Acinetobacter baumannii; A. baumannii NCTC 13304, OXA): 1 µg/mL (≈ 2.77 µM)
- MIC ([1]; S. aureus NRS 1 (hVISA)): 4 µg/mL (≈ 11.1 µM)
- MIC ([1]; S. aureus NRS 2): 4 µg/mL (≈ 11.1 µM)
- MIC ([1]; S. aureus NRS 3): >8 µg/mL
- MIC ([1]; S. aureus NRS 4): 4 µg/mL (≈ 11.1 µM)
- MIC ([1]; S. aureus NRS 13): 0.12 µg/mL (≈ 0.332 µM)
- MIC ([1]; S. aureus NRS 18): 4 µg/mL (≈ 11.1 µM)
- MIC ([1]; S. aureus NRS 22): 8 µg/mL (≈ 22.1 µM)
- MIC ([1]; S. aureus NRS 24 (hVISA)): >8 µg/mL
- MIC ([1]; S. aureus NRS 27): 8 µg/mL (≈ 22.1 µM)

Structure (SMILES): CC(C)(O/N=C(\C(=O)N[C@@H]1C(=O)N2C(C(=O)[O-])=C(C[n+]3ccccc3)CS[C@H]12)c1csc(N)n1)C(=O)O [CAZ]
- MIC (Escherichia coli; E. coli ATCC 35218, ESBL): 0.12 µg/mL (≈ 0.22 µM)
- MIC (Escherichia coli; [2]): 0.12 µg/mL (≈ 0.22 µM)
- MIC (Escherichia coli; E. coli ATCC BAA-2471, NDM): >64 µg/mL
- MIC (Escherichia coli; E. coli CDC 114, ESBL/KPC): >64 µg/mL
- MIC (Escherichia coli; E. coli CDC 118, ESBL/NDM): >64 µg/mL
- MIC (Escherichia coli; E. coli CDC 435, NDM): >64 µg/mL
- MIC (Escherichia coli; E. coli CDC 451, KPC): 64 µg/mL (≈ 117 µM)
- MIC (Escherichia coli; E. coli CDC 503, ESBL/NDM): >64 µg/mL
- MIC (Escherichia coli; E. coli MMX 5745, KPC): 32 µg/mL (≈ 58.5 µM)
- MIC (Escherichia coli; E. coli MMX 5755, ESBL): >64 µg/mL
- MIC (Escherichia coli; E. coli MMX 5756, ESBL): >64 µg/mL
- MIC (Escherichia coli; E. coli MMX 5758, ESBL): 16 µg/mL (≈ 29.3 µM)
- MIC (Klebsiella pneumoniae; [3]): >64 µg/mL
- MIC (Klebsiella pneumoniae; [4]): >64 µg/mL
- MIC (Klebsiella pneumoniae; K. pneumoniae CDC 112, KPC): >64 µg/mL
- MIC (Klebsiella pneumoniae; [5]): >64 µg/mL
- MIC (Klebsiella pneumoniae; [6]): >64 µg/mL
- MIC (Klebsiella pneumoniae; [7]): >64 µg/mL
- MIC (Klebsiella pneumoniae; [8]): 4 µg/mL (≈ 7.32 µM)
- MIC (Klebsiella pneumoniae; [9]): >64 µg/mL
- MIC (Klebsiella pneumoniae; [10]): >64 µg/mL
- MIC (Klebsiella pneumoniae; [11]): >64 µg/mL
- MIC (Klebsiella pneumoniae; [12]): >64 µg/mL
- MIC (Klebsiella pneumoniae; K. pneumoniae MMX 9029, ESBL): 4 µg/mL (≈ 7.32 µM)
- MIC (Pseudomonas aeruginosa; P. aeruginosa CDC 230, VIM/OXA): 64 µg/mL (≈ 117 µM)
- MIC (Pseudomonas aeruginosa; P. aeruginosa CDC 231, KPC/OXA): >64 µg/mL
- MIC (Pseudomonas aeruginosa; P. aeruginosa CDC 241, IMP/OXA): >64 µg/mL
- MIC (Pseudomonas aeruginosa; P. aeruginosa CDC 246, NDM/OXA): >64 µg/mL
- MIC (Pseudomonas aeruginosa; P. aeruginosa CDC 250, NDM/OXA): >64 µg/mL
- MIC (Pseudomonas aeruginosa; P. aeruginosa CDC 356, KPC): 64 µg/mL (≈ 117 µM)
- MIC (Pseudomonas aeruginosa; P. aeruginosa CDC 439, IMP): >64 µg/mL
- MIC (Pseudomonas aeruginosa; P. aeruginosa CDC 444, VIM): 32 µg/mL (≈ 58.5 µM)
- MIC (Pseudomonas aeruginosa; P. aeruginosa CDC 457, VIM): >64 µg/mL
- MIC (Pseudomonas aeruginosa; [13]): 64 µg/mL (≈ 117 µM)
- MIC (Pseudomonas aeruginosa; [14]): 32 µg/mL (≈ 58.5 µM)
- MIC (Acinetobacter baumannii; A. baumannii CDC 273, ESBL/OXA): 64 µg/mL (≈ 117 µM)
- MIC (Acinetobacter baumannii; A. baumannii CDC 274, ESBL/OXA): >64 µg/mL
- MIC (Acinetobacter baumannii; A. baumannii CDC 275, ESBL/OXA): >64 µg/mL
- MIC (Acinetobacter baumannii; A. baumannii CDC 277, ESBL/OXA): >64 µg/mL
- MIC (Acinetobacter baumannii; A. baumannii CDC 284, ESBL/OXA): 64 µg/mL (≈ 117 µM)
- MIC (Acinetobacter baumannii; A. baumannii CDC 307, OXA): 64 µg/mL (≈ 117 µM)
- MIC (Acinetobacter baumannii; A. baumannii CDC 308, ESBL/OXA): 64 µg/mL (≈ 117 µM)
- MIC (Acinetobacter baumannii; A. baumannii CDC 311, OXA): >64 µg/mL
- MIC (Acinetobacter baumannii; A. baumannii CDC 312, OXA): >64 µg/mL
- MIC (Acinetobacter baumannii; A. baumannii CDC 313, ESBL/OXA): >64 µg/mL
- MIC (Acinetobacter baumannii; A. baumannii NCTC 13304, OXA): >64 µg/mL

Structure (SMILES): CO/N=C(\C(=O)N[C@@H]1C(=O)N2C(C(=O)O)=C(CSc3nc(=O)c(=O)[nH]n3C)CS[C@H]12)c1csc(N)n1 [Ceftriaxone]
- MIC (Neisseria gonorrhoeae; ATCC49226, N. gonorrhoeae MMX 683 (ATCC 49226), QC): 0.015 µg/mL (≈ 0.027 µM)
- MIC (Neisseria gonorrhoeae; N. gonorrhoeae MMX 6757, CTX NS): 1 µg/mL (≈ 1.8 µM)
- MIC (Neisseria gonorrhoeae; N. gonorrhoeae MMX 6791, CIP^R): 0.06 µg/mL (≈ 0.108 µM)
- MIC (Neisseria gonorrhoeae; N. gonorrhoeae MMX 6792, CIP^R): 0.06 µg/mL (≈ 0.108 µM)
- MIC (Neisseria gonorrhoeae; N. gonorrhoeae MMX 6793, CIP^R): 0.03 µg/mL (≈ 0.0541 µM)
